In ChEMBL document CHEMBL5346969 (J Med Chem, 2023):
pIC50, pKi: −log10 of the molar value. Active and inactive are the calls of the source. The rule behind the calls is not given here.

What was measured:
MDA-MB-468 = test: Antiproliferative activity against human MDA-MB-468 cells assessed as inhibition of cell viability incubated for 72 hrs by CCK-8 assay; type: functional, cell-based; settings: MDA-MB-468, 72 h
MDA-MB-231 [1] = test: Antiproliferative activity against human MDA-MB-231 cells assessed as inhibition of cell viability incubated for 72 hrs by MTT assay; type: functional, cell-based; settings: MDA-MB-231, 72 h
[2] = Selectivity ratio, ratio of IC50 for Induction of ferroptosis in human MDA-MB-231 cells assessed as reduction in cell viability in presence of ferroptosis inhibitor, ferrostatin-1 to IC50 for antiproliferative activity against human MDA-MB-231 cells; type: functional
MCF7 = test: Antiproliferative activity against human MCF7 cells assessed as inhibition of cell viability at 1 uM incubated for 72 hrs by MTT assay; type: functional, cell-based
A549 = test: Antiproliferative activity against human A549 cells assessed as inhibition of cell viability at 1 uM incubated for 72 hrs by MTT assay; type: functional, cell-based
HepG2 = test: Antiproliferative activity against human HepG2 cells assessed as inhibition of cell viability at 1 uM incubated for 72 hrs by MTT assay; type: functional, cell-based
Hep 3B2 = test: Antiproliferative activity against human Hep3B cells assessed as inhibition of cell viability at 1 uM incubated for 72 hrs by MTT assay; type: functional, cell-based
U-87 MG = test: Antiproliferative activity against human U87 cells assessed as inhibition of cell viability at 1 uM incubated for 72 hrs by MTT assay; type: functional, cell-based; settings: U-87MG ATCC
HeLa = test: Antiproliferative activity against human HeLa cells assessed as inhibition of cell viability at 1 uM incubated for 72 hrs by MTT assay; type: functional, cell-based
MDA-MB-231 [3] = test: Inhibition of colony formation in human MDA-MB-231 cells at 5 to 20 nM incubated for 14 days by crystal violet staining based assay; type: functional, cell-based; settings: dose 5-20 nM, time 14.0 day
MDA-MB-231 [4] = test: Inhibition of colony formation in human MDA-MB-231 cells at 20 nM incubated for 14 days by crystal violet staining based assay; type: functional, cell-based; settings: time 14.0 day
MDA-MB-231 [5] = test: Induction of ferroptosis in human MDA-MB-231 cells assessed as cell viability at 1 uM incubated for 72 hrs in presence of N-acetyl-L-cysteine by MTT assay; type: functional, cell-based
MDA-MB-231 [6] = test: Induction of ferroptosis in human MDA-MB-231 cells assessed as cell viability incubated for 72 hrs in presence of apoptosis inhibitor, Z-VAD-FMK by MTT assay; type: functional, cell-based; settings: MDA-MB-231, 72 h
MDA-MB-231 [7] = test: Induction of ferroptosis in human MDA-MB-231 cells assessed as cell viability incubated for 72 hrs in presence of autophagy inhibitor, 3-MA by MTT assay; type: functional, cell-based; settings: MDA-MB-231, 72 h
MDA-MB-231 [8] = test: Induction of ferroptosis in human MDA-MB-231 cells assessed as cell viability incubated for 72 hrs in presence of N-acetyl-L-cysteine by MTT assay; type: functional, cell-based; settings: MDA-MB-231, 72 h
MDA-MB-231 [9] = test: Induction of ferroptosis in human MDA-MB-231 cells assessed as cell viability incubated for 72 hrs in presence of glutathione by MTT assay; type: functional, cell-based; settings: MDA-MB-231, 72 h
MDA-MB-231 [10] = test: Induction of ferroptosis in human MDA-MB-231 cells assessed as increase in intracellular lipid peroxidase by measuring increase in green fluorescence intensity at 5 to 20 nM incubated for 8 hrs by C11-BODIPY-581/591 staining based confocal laser microscopy; type: functional, cell-based; settings: dose 5-20 nM
MDA-MB-231 [11] = test: Induction of ferroptosis in human MDA-MB-231 cells assessed as increase in intracellular ROS accumulation by measuring green fluorescence intensity at 20 nM incubated for 8 hrs in presence of ferroptosis inhibitor, ferrostatin-1 by DCFH-DA staining based confocal laser microscopy; type: functional, cell-based
MDA-MB-231 [12] = test: Induction of ferroptosis-mediated morphological changes in human MDA-MB-231 cells assessed as ruptured mitochondria at 20 nM incubated for 6 hrs by TEM analysis; type: functional, cell-based
MDA-MB-231 [13] = test: Induction of ferroptosis-mediated morphological changes in human MDA-MB-231 cells assessed as broken outer membrane at 20 nM incubated for 6 hrs by TEM analysis; type: functional, cell-based
[14] = target: T1, Phospholipid hydroperoxide glutathione peroxidase GPX4 (Homo sapiens, UniProt P36969); test: Covalent inhibition of GPX4 (unknown origin) assessed as inhibition constant incubated for 30 to 90 mins in presence of glutathione, glutathione reductase and NADPH by microplate reader analysis
T1 sequence (P36969 whole entry): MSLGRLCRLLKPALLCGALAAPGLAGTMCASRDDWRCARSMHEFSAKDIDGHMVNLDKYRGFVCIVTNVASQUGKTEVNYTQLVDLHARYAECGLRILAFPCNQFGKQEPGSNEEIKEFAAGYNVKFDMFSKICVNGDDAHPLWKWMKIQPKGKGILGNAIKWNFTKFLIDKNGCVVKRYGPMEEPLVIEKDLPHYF

MDA-MB-231 [15] = test: Induction of ferroptosis in human MDA-MB-231 cells with assessed as increase in ACSL4 protein expression level at 5 to 20 nM incubated for 8 hrs by Western blot analysis; type: functional, cell-based; settings: dose 5-20 nM
MDA-MB-231 [16] = test: Induction of ferroptosis in human MDA-MB-231 cells with assessed as change in GPX4 protein expression level at 5 to 20 nM incubated for 8 hrs in presence of ferroptosis inhibitor, ferrostatin-1 by Western blot analysis; type: functional, cell-based; settings: dose 5-20 nM
MDA-MB-231 [17] = test: Induction of ferroptosis in human MDA-MB-231 cells with assessed as change in FTH1 protein expression level at 5 to 20 nM incubated for 8 hrs in presence of ferroptosis inhibitor, ferrostatin-1 by Western blot analysis; type: functional, cell-based; settings: dose 5-20 nM
MDA-MB-231 [18] = test: Induction of ferroptosis in human MDA-MB-231 cells with assessed as decrease in intracellular GSH level at 20 nM incubated for 8 hrs by colorimetric assay; type: functional, cell-based
MDA-MB-231 [19] = test: Antitumor activity against human MDA-MB-231 cells xenografted in immunodeficient BALB/c mouse assessed as tumor growth inhibition at 5 mg/kg,ip for 21 days consecutively every day; type: functional; settings: MDA-MB-231, 504 h, time 21 day, read-out: TGI
[20] = Toxicity in immunodeficient BALB/c mouse xenografted with human MDA-MB-231 cells assessed as body weight change at 5 to 20 mg/kg, ip for 21 days; type: organism-based; settings: in vivo, 504 h, dose 5-20 mg/kg, time 21 day
[21] = Toxicity in immunodeficient BALB/c mouse xenografted with human MDA-MB-231 cells assessed as morphological changes in liver at 20 mg/kg, ip for 21 days by H and E staining based microscopy; type: organism-based; settings: in vivo, 504 h, time 21 day
MDA-MB-231 [22] = test: Induction of ferroptosis-mediated antitumor activity against human MDA-MB-231 cells xenografted in immunodeficient BALB/C mouse assessed as reduction in GPX4 level in tumor tissue at 5 to 20 mg/kg,ip for 21 days by Western blot analysis; type: functional, organism-based; settings: dose 5-20 mg/kg, time 21.0 day
MDA-MB-231 [23] = test: Antitumor activity against human MDA-MB-231 cells xenografted in immunodeficient BALB/c mouse assessed as inhibition of tumor cell proliferation at 20 mg/kg,ip for 21 days consecutively every day by Ki67 staining based immunohistochemical analysis; type: functional, organism-based; settings: time 21.0 day
[24] = Toxicity in immunodeficient BALB/c mouse assessed as change in CREA level at 20 mg/kg, ip for 14 days by biochemical analysis; type: organism-based; settings: in vivo, 336 h, time 14 day

Structure (SMILES) | pIC50 (MDA-MB-468) | pIC50 (MDA-MB-231 [1]) | Ratio IC50 [2] | Activity (MCF7) | Activity (A549) | Activity (HepG2) | Activity (Hep 3B2) | Activity (U-87 MG) | Activity (HeLa) | inhibition (MDA-MB-231 [3]) | inhibition (MDA-MB-231 [4]) | Activity (MDA-MB-231 [5]) | pIC50 (MDA-MB-231 [6]) | pIC50 (MDA-MB-231 [7]) | pIC50 (MDA-MB-231 [8]) | pIC50 (MDA-MB-231 [9]) | Activity (MDA-MB-231 [10]) | Activity (MDA-MB-231 [11]) | Activity (MDA-MB-231 [12]) | Activity (MDA-MB-231 [13]) | further results
COc1cc(N(C(=O)CCl)c2ccc3c(c2)OCCO3)cc(OC)c1F | 8.00 | 7.92 | 249.5 | Active | inactive | inactive | inactive | inactive | inactive | Dose-Dependent Effect | Active | Active | 7.51 | 7.74 | < 4.70 | < 4.70 | Dose-Dependent Effect | inactive | Active | Active | pKi [14]: 6.20; Activity (MDA-MB-231 [15]): Active; Activity (MDA-MB-231 [16]): inactive; Activity (MDA-MB-231 [17]): inactive; Activity (MDA-MB-231 [18]): Active; inhibition in vivo at 5 mg/kg (MDA-MB-231 [19]): 50.4%; Activity [20]: Non-Toxic; Activity [21]: Non-Toxic; Activity (MDA-MB-231 [22]): Active; Activity (MDA-MB-231 [23]): Active; Activity [24]: Toxic
COc1cc(N(C(=O)CBr)c2ccc3c(c2)OCCO3)cc(OC)c1F | 7.92 | 8.10 | 218.8 | inactive | inactive | inactive | inactive | inactive | inactive | Dose-Dependent Effect | Active | Active | 7.52 | 7.74 | < 4.70 | < 4.70 | Dose-Dependent Effect | inactive | Active | Active | pKi [14]: 6.23; Activity (MDA-MB-231 [15]): Active; Activity (MDA-MB-231 [16]): inactive; Activity (MDA-MB-231 [17]): inactive; Activity (MDA-MB-231 [18]): Active; inhibition in vivo at 5 mg/kg (MDA-MB-231 [19]): 18.9%; Activity [20]: Non-Toxic; Activity [21]: Non-Toxic; Activity (MDA-MB-231 [22]): Active; Activity (MDA-MB-231 [23]): Active; Activity [24]: Toxic
